Source: PubChem BioAssay (NCI)
Where “and” joins values, the source holds several entries; their conditions need not be identical. Equal entries are not always repeated.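 Following 48 hours of exposure in 96-well plates, responses at five concentrations were used to interpolate endpoints linearly. GI50: concentration for 50% inhibition of growth. At the TGI there is no net growth.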

Assays:
Test in all cases: DTP human tumour cell line panel, 48 h
[1] = test system: 786-0 renal
[2] = test system: A498 renal
[3] = test system: A549 NSCLC
[4] = test system: ACHN renal
[5] = test system: CAKI-1 renal
[6] = test system: CCRF-CEM leukemia
[7] = test system: COLO 205 colon
[8] = test system: DLD-1 colon
[9] = test system: DMS 114 small cell lung
[10] = test system: DMS 273 small cell lung
[11] = test system: EKVX NSCLC
[12] = test system: HCC-2998 colon
[13] = test system: HCT-116 colon
[14] = test system: HCT-15 colon
[15] = test system: HL-60(TB) leukemia
[16] = test system: HOP-62 NSCLC
[17] = test system: HT29 colon
[18] = test system: IGROV1 ovarian
[19] = test system: K-562 leukemia
[20] = test system: KM12 colon
[21] = test system: KM20L2 colon
[22] = test system: LOX IMVI melanoma
[23] = test system: LXFL 529 NSCLC
[24] = test system: M14 melanoma
[25] = test system: M19-MEL melanoma
[26] = test system: MALME-3M melanoma
[27] = test system: MOLT-4 leukemia
[28] = test system: NCI-H23 lung
[29] = test system: NCI-H460 lung
[30] = test system: NCI-H522 lung
[31] = test system: OVCAR-3 ovarian
[32] = test system: OVCAR-4 ovarian
[33] = test system: OVCAR-5 ovarian
[34] = test system: OVCAR-8 ovarian
[35] = test system: RPMI-8226 leukemia
[36] = test system: SF-268 CNS
[37] = test system: SF-295 CNS
[38] = test system: SF-539 CNS
[39] = test system: SK-MEL-2 melanoma
[40] = test system: SK-MEL-28 melanoma
[41] = test system: SK-MEL-5 melanoma
[42] = test system: SK-OV-3 ovarian
[43] = test system: SN12C renal
[44] = test system: SNB-19 CNS
[45] = test system: SW-620 colon
[46] = test system: TK-10 renal
[47] = test system: U251 CNS
[48] = test system: UACC-257 melanoma
[49] = test system: UACC-62 melanoma
[50] = test system: UO-31 renal
[51] = test system: XF 498 CNS
[52] = test system: HOP-18 NSCLC
[53] = test system: HOP-92 NSCLC
[54] = test system: NCI-H226 lung
[55] = test system: RXF 393 renal
[56] = test system: SNB-75 CNS
[57] = test system: SNB-78 CNS
[58] = test system: SR leukemia
[59] = test system: BT-549 breast
[60] = test system: DU-145 prostate
[61] = test system: HS 578T breast
[62] = test system: MCF7 breast
[63] = test system: MDA-MB-231 breast
[64] = test system: MDA-MB-435
[65] = test system: MDA-N
[66] = test system: NCI/ADR-RES ovarian
[67] = test system: PC-3 prostate
[68] = test system: T-47D breast

With `COc1ccc(OC)c2c1C(=O)C1CC1(Br)C2=O` (configuration not stated) the TGI [1] was greater than 100 µM, the TGI [2] was greater than 100 µM and the TGI [3] was greater than 100 µM. The TGI [4] was greater than 100 µM, the TGI [5] was greater than 100 µM and the TGI [6] was greater than 100 µM. It also gave a TGI [7] greater than 100 µM, a TGI [8] greater than 100 µM and a TGI [9] greater than 100 µM. For the same molecule, the TGI [10] was greater than 100 µM, the TGI [11] was greater than 100 µM and the TGI [12] was greater than 100 µM. For the same molecule, the TGI [13] was greater than 100 µM, the TGI [14] was greater than 100 µM and the TGI [15] was greater than 100 µM. The TGI [16] was greater than 100 µM, the TGI [17] was greater than 100 µM and the TGI [18] was greater than 100 µM. The TGI [19] was greater than 100 µM, the TGI [20] was greater than 100 µM and the TGI [21] was greater than 100 µM. For the same molecule, the TGI [22] was greater than 100 µM, the TGI [23] was greater than 100 µM and the TGI [24] was greater than 100 µM. It also gave a TGI [25] greater than 100 µM, a TGI [26] greater than 100 µM and a TGI [27] greater than 100 µM. It also gave a TGI [28] greater than 100 µM, a TGI [29] greater than 100 µM and a TGI [30] greater than 100 µM. It also gave a TGI [31] greater than 100 µM, a TGI [32] greater than 100 µM and a TGI [33] greater than 100 µM. For the same molecule, the TGI [34] was greater than 100 µM, the TGI [35] was greater than 100 µM and the TGI [36] was greater than 100 µM. The TGI [37] was greater than 100 µM, the TGI [38] was greater than 100 µM and the TGI [39] was greater than 100 µM. The TGI [40] was greater than 100 µM, the TGI [41] was greater than 100 µM and the TGI [42] was greater than 100 µM. For the same molecule, the TGI [43] was greater than 100 µM, the TGI [44] was greater than 100 µM and the TGI [45] was greater than 100 µM. For the same molecule, the TGI [46] was greater than 100 µM, the TGI [47] was greater than 100 µM and the TGI [48] was greater than 100 µM. For the same molecule, the TGI [49] was greater than 100 µM, the TGI [50] was greater than 100 µM and the TGI [51] was greater than 100 µM.

`CC1=C2C(=CC(C)(C)C2O)C(=O)C(C)(O)C12CC2` (configuration not stated) was tested, and the TGI [1] was 0.0388 µM, the TGI [2] was 0.0822 µM and the TGI [3] was 0.277 µM. It also gave a TGI [4] of 0.0373 µM, a TGI [5] of 0.0315 µM and a TGI [6] of 0.126 µM. For the same molecule, the GI50 [7] was 0.0191 µM, the TGI [7] was 0.0621 µM and the TGI [8] was 0.0447 µM. For the same molecule, the TGI [9] was 0.0281 µM, the TGI [10] was 0.025 µM and the TGI [11] was 0.144 µM. It also gave a TGI [12] of 0.0268 µM, a TGI [13] of 0.188 µM and a TGI [14] of 0.151 µM. The TGI [15] was 0.0149 µM, the TGI [52] was 0.179 µM and the TGI [16] was 0.0447 µM. For the same molecule, the TGI [53] was 0.0526 µM, the TGI [17] was 0.0311 µM and the TGI [18] was 0.132 µM. It also gave a TGI [19] of 0.154 µM, a TGI [20] of 0.109 µM and a TGI [21] of 0.0522 µM. It also gave a TGI [22] of 0.025 µM, a TGI [23] of 0.114 µM and a TGI [24] of 0.0602 µM. The TGI [25] was 0.0861 µM, the TGI [26] was 0.0337 µM and the TGI [27] was 0.0245 µM. It also gave a TGI [54] of 0.152 µM, a TGI [28] of 0.0234 µM and a TGI [29] of 0.0412 µM. The TGI [30] was 0.017 µM, the TGI [31] was 0.0494 µM and the TGI [32] was 0.0209 µM. It also gave a TGI [33] of 0.0433 µM, a TGI [34] of 0.0499 µM and a TGI [55] of 0.0194 µM. It also gave a TGI [36] of 0.0667 µM, a TGI [37] of 0.0342 µM and a TGI [38] of 0.0604 µM. It also gave a GI50 [39] of 0.0108 µM, a TGI [39] of 0.0283 µM and a TGI [40] of 0.0865 µM. The TGI [41] was 0.0219 µM, the TGI [42] was 0.175 µM and the TGI [43] was 0.146 µM. It also gave a TGI [44] of 0.17 µM, a TGI [56] of 0.0377 µM and a TGI [57] of 0.226 µM. For the same molecule, the TGI [58] was 0.128 µM, the TGI [45] was 0.0752 µM and the TGI [46] was 0.14 µM. For the same molecule, the GI50 [47] was 0.00775 µM, the TGI [47] was 0.102 µM and the TGI [48] was 0.0442 µM. The TGI [49] was 0.0324 µM, the TGI [50] was 0.0291 µM and the TGI [51] was 0.0309 µM.

Molecule `O=C1c2c(O)cccc2C(C2OC(CO)C(O)C(O)C2O)c2cc(CO)cc(O)c21` (configuration not stated) has a TGI [1] greater than 100 µM, a TGI [2] greater than 100 µM and a TGI [3] greater than 100 µM. For the same molecule, the TGI [4] was greater than 100 µM, the TGI [59] was greater than 100 µM and the TGI [5] was greater than 100 µM. The TGI [6] was greater than 100 µM, the TGI [7] was greater than 100 µM and the TGI [60] was greater than 100 µM. For the same molecule, the TGI [11] was greater than 100 µM, the TGI [12] was greater than 100 µM and the TGI [13] was greater than 100 µM. The TGI [14] was greater than 100 µM, the TGI [15] was greater than 100 µM and the TGI [16] was greater than 100 µM. For the same molecule, the TGI [53] was greater than 100 µM, the TGI [61] was greater than 100 µM and the TGI [17] was greater than 100 µM. It also gave a TGI [18] greater than 100 µM, a TGI [19] greater than 100 µM and a TGI [20] greater than 100 µM. It also gave a TGI [22] greater than 100 µM, a TGI [24] greater than 100 µM and a TGI [26] greater than 100 µM. It also gave a TGI [62] greater than 100 µM, a TGI [63] greater than 100 µM and a TGI [64] greater than 100 µM. The TGI [65] was greater than 100 µM, the TGI [27] was greater than 100 µM and the TGI [54] was greater than 100 µM. For the same molecule, the TGI [28] was greater than 100 µM, the TGI [29] was greater than 100 µM and the TGI [30] was greater than 100 µM. The TGI [66] was greater than 100 µM, the GI50 [31] was 43.9 µM and > 100 µM and the TGI [31] was greater than 100 µM. The TGI [32] was greater than 100 µM, the TGI [33] was greater than 100 µM and the TGI [34] was greater than 100 µM. The TGI [67] was greater than 100 µM, the TGI [35] was greater than 100 µM and the TGI [55] was greater than 100 µM. The TGI [36] was greater than 100 µM, the TGI [37] was greater than 100 µM and the TGI [38] was greater than 100 µM. It also gave a TGI [39] greater than 100 µM, a TGI [40] greater than 100 µM and a TGI [41] greater than 100 µM. For the same molecule, the TGI [42] was greater than 100 µM, the TGI [43] was greater than 100 µM and the TGI [44] was greater than 100 µM. For the same molecule, the TGI [56] was greater than 100 µM, the GI50 [58] was greater than 100 µM and the TGI [58] was greater than 100 µM. For the same molecule, the TGI [45] was greater than 100 µM, the TGI [68] was greater than 100 µM and the TGI [46] was greater than 100 µM. The TGI [47] was greater than 100 µM, the TGI [48] was greater than 100 µM and the TGI [49] was greater than 100 µM. It also gave a TGI [50] greater than 100 µM.
